The compounds below were run on SARS-CoV-2 (assay: In vitro antiviral cell-based assay (live SARS-CoV-2), plaque reduction assay in VeroE6 cells). Conditions: Severe acute respiratory syndrome coronavirus 2, Vero C1008, footnote key printed as IC50 (nM).
For `C[C@](C(=O)NC1CCC(F)(F)CC1)(c1cncnc1)N(C(=O)[C@H](F)Cl)c1ccc(-c2cncs2)cc1` (single isomer, unassigned) [Example 1a], the EC50 was 100 to 1000 nM.

The compounds below were run against SARS-CoV-2 MPRO (Severe acute respiratory syndrome coronavirus 2 (2019-nCoV) (SARS-CoV-2), UniProt P0DTD1) (assay: SARS-CoV-2 Mpro enzymatic assay (FRET substrate cleavage)). Conditions: C-His6-tagged SARS-CoV-2 MPRO 25 nM, 30 min pre-incubation at RT, 60 min at 30° C., 10 doses from 25 μM; read-out: M pro IC50.
Format: biochemical
`C[C@](C(=O)NC1CCC(F)(F)CC1)(c1cncnc1)N(C(=O)[C@H](F)Cl)c1ccc(-c2cncs2)cc1` (single isomer, unassigned) [Example 1a] was tested, and the IC50 was under 100 nM. For `C[C@@](C(=O)NC1CCOCC1)(c1cncc(F)c1)N(C(=O)[C@H](F)Cl)c1ccc(OC(F)(F)Cl)cc1` [Example 98b], the IC50 was 1000 to 10000 nM. With `C[C@](C(=O)NC1CCC(F)(F)CC1)(c1cncc(F)c1)N(C(=O)[C@H](F)Cl)c1ccc(OC(F)(F)Cl)cc1` [Example 99a] the IC50 was under 100 nM. `C[C@@](C(=O)NC1CCC(F)(F)CC1)(c1cncc(F)c1)N(C(=O)[C@H](F)Cl)c1ccc(OC(F)(F)Cl)cc1` [Example 99b] gave an IC50 of 1000 to 10000 nM. Compound `C[C@](C(=O)NC1CCC(F)(F)CC1)(c1cncnc1)N(C(=O)[C@H](F)Cl)c1ccc(-c2nccs2)cc1` [Example 100a] has an IC50 of under 100 nM. Compound `C[C@@](C(=O)NC1CCC(F)(F)CC1)(c1cncnc1)N(C(=O)[C@H](F)Cl)c1ccc(-c2nccs2)cc1` [Example 100b] has an IC50 of 100 to 1000 nM. `C[C@](C(=O)NC1CCOCC1)(c1cncnc1)N(C(=O)[C@H](F)Cl)c1ccc(-c2nccs2)cc1` [Example 101a] gave an IC50 of under 100 nM. In the case of `C[C@](C(=O)NC1CCC(F)(F)CC1)(c1cncc(F)c1)N(C(=O)[C@H](F)Cl)c1ccc(-c2nccs2)cc1` [Example 102a], the IC50 is reported as under 100 nM. `C[C@@](C(=O)NC1CCC(F)(F)CC1)(c1cncc(F)c1)N(C(=O)[C@H](F)Cl)c1ccc(-c2nccs2)cc1` [Example 102b] was tested, and the IC50 was 100 to 1000 nM. Compound `C[C@](C(=O)NC1CCOCC1)(c1cncc(F)c1)N(C(=O)[C@H](F)Cl)c1ccc(-c2nccs2)cc1` [Example 103a] has an IC50 of under 100 nM. For `C[C@@](C(=O)NC1CCOCC1)(c1cncc(F)c1)N(C(=O)[C@H](F)Cl)c1ccc(-c2nccs2)cc1` [Example 103b], the IC50 was over 10000 nM. With `C[C@](C(=O)NC1CCC(F)(F)CC1)(c1cccnc1)N(C(=O)[C@H](F)Cl)c1ccc(SC(F)(F)F)cc1` [Example 104a] the IC50 was under 100 nM. With `C[C@@](C(=O)NC1CCC(F)(F)CC1)(c1cccnc1)N(C(=O)[C@H](F)Cl)c1ccc(SC(F)(F)F)cc1` [Example 104b] the IC50 was 1000 to 10000 nM. `C[C@](C(=O)NC1CCOCC1)(c1cccnc1)N(C(=O)[C@H](F)Cl)c1ccc(SC(F)(F)F)cc1` [Example 105a] gave an IC50 of under 100 nM. `C[C@@](C(=O)NC1CCOCC1)(c1cccnc1)N(C(=O)[C@H](F)Cl)c1ccc(SC(F)(F)F)cc1` [Example 105b] was tested, and the IC50 was over 10000 nM. In the case of `C[C@](C(=O)NC1CCC2(CC1)COC2)(c1cncnc1)N(C(=O)[C@H](F)Cl)c1ccc(OC(F)(F)F)cc1` [Example 107a], the IC50 is reported as under 100 nM. `C[C@](C(=O)NC1CCOCC1)(c1cncnc1)N(C(=O)[C@H](F)Cl)c1ccc(C(F)(F)C(F)(F)F)cc1` [Example 108a] gave an IC50 of 100 to 1000 nM. `C[C@@](C(=O)NC1CCOCC1)(c1cncnc1)N(C(=O)[C@H](F)Cl)c1ccc(C(F)(F)C(F)(F)F)cc1` [Example 108b] showed an IC50 of over 10000 nM. Work on `C[C@](C(=O)Nc1ccc(Cl)cc1F)(c1cncnc1)N(C(=O)[C@H](F)Cl)c1ccc(OC(F)(F)F)cc1` [Example 110a] yielded an IC50 of under 100 nM. `C[C@@](C(=O)Nc1ccc(Cl)cc1F)(c1cncnc1)N(C(=O)[C@H](F)Cl)c1ccc(OC(F)(F)F)cc1` [Example 110b] showed an IC50 of 1000 to 10000 nM. `C[C@](C(=O)NC1CCOCC1)(c1cccnc1)N(C(=O)[C@H](F)Cl)c1ccc(OC(F)(F)Cl)cc1` [Example 111a] showed an IC50 of under 100 nM. Compound `C[C@@](C(=O)NC1CCOCC1)(c1cccnc1)N(C(=O)[C@H](F)Cl)c1ccc(OC(F)(F)Cl)cc1` [Example 111b] has an IC50 of over 10000 nM. With `C[C@](C(=O)NC1CCC(F)(F)CC1)(c1cncnc1)N(C(=O)[C@H](F)Cl)c1cccc(OC(F)(F)F)c1` [Example 112a] the IC50 was 100 to 1000 nM. Work on `C[C@@](C(=O)NC1CCC(F)(F)CC1)(c1cncnc1)N(C(=O)[C@H](F)Cl)c1cccc(OC(F)(F)F)c1` [Example 112b] yielded an IC50 of over 10000 nM. Compound `C[C@](C(=O)NC1CCC(F)(F)CC1)(c1cncnc1)N(C(=O)[C@H](F)Cl)c1ccc2c(c1)OC(F)(F)O2` [Example 113a] has an IC50 of under 100 nM. For `C[C@@](C(=O)NC1CCC(F)(F)CC1)(c1cncnc1)N(C(=O)[C@H](F)Cl)c1ccc2c(c1)OC(F)(F)O2` [Example 113b], the IC50 was over 10000 nM. Compound `C[C@](C(=O)NC1CCOCC1)(c1cncnc1)N(C(=O)C(Cl)Cl)c1ccc(OC(F)(F)Cl)cc1` [Example 115a] has an IC50 of under 100 nM. `C[C@@](C(=O)NC1CCOCC1)(c1cncnc1)N(C(=O)C(Cl)Cl)c1ccc(OC(F)(F)Cl)cc1` [Example 115b] gave an IC50 of 1000 to 10000 nM.

Same assay, conditions: M pro IC50, C-His6-tagged SARS-CoV-2 MPRO 25 nM, 30 min pre-incubation at RT, 60 min at 30° C., 10 doses from 25 μM
Compound `C[C@](C(=O)N[C@@H]1CC[C@H](NC(=O)C(F)(F)F)C1)(c1cncc(F)c1)N(C(=O)[C@H](F)Cl)c1ccc(OC(F)(F)F)cc1` [Example 109a] has an IC50 of under 100 nM. In the case of `C[C@@](C(=O)N[C@@H]1CC[C@H](NC(=O)C(F)(F)F)C1)(c1cncc(F)c1)N(C(=O)[C@H](F)Cl)c1ccc(OC(F)(F)F)cc1` [Example 109b], the IC50 is reported as 1000 to 10000 nM.
